Measured values published in patent publication US20220380370A1 (Goldfinch Bio, Inc., priority 2019, published 2022).

What was measured:
CB1 receptor = target: T1, CB1 receptor (Homo sapiens, UniProt P21554); test: CB1 cAMP antagonist assay (LANCE Ultra cAMP kit); type: cell-based; details: CHO cells stably expressing the CB1 receptor; forskolin and agonist CP55940 at EC90
T1 construct: Perkin Elmer (CB1-CHO cells); host or cells: Flp-In CHO cells or CB1-CHO cells, stably expressing
How it was run: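 CHO cells stably expressing CB1 or CB2 were preincubated with compound 10 min at 37 °C, then stimulated 30 min at 25 °C with EC90 forskolin plus EC90 CP55940, in HBSS/HEPES/BSA buffer with 0.5 mM IBMX. cAMP read by TR-FRET (665/615 nm); % inhibition against AM251 (CB1) or AM630 (CB2) controls, IC50 from 4-parameter Hill fit.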

CB2 receptor = target: T2, CB2 receptor (Homo sapiens, UniProt P34972); test: CB2 cAMP antagonist assay (LANCE Ultra cAMP kit); type: cell-based; details: CB2-CHO cells stably expressing the CB2 receptor; forskolin and agonist CP55940 at EC90
T2 construct: host or cells: CB2-CHO cells, stably expressing
T2 sequence (P34972 whole entry): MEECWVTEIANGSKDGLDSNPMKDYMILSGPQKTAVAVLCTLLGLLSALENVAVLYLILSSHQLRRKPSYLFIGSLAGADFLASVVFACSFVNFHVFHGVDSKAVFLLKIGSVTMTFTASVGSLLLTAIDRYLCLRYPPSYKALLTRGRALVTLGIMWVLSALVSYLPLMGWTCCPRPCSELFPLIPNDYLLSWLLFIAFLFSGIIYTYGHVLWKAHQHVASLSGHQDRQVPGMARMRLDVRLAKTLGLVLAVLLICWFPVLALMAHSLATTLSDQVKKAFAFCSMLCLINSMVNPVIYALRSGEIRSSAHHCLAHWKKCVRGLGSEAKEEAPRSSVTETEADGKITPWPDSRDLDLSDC
Text: LANCE Ultra cAMP kit (Perkin Elmer) was used to quantitate the amount of 3′,5′-cyclic adenosine monophosphate (cAMP) produced in Flp-In CHO cells (Invitrogen) stably expressing the CB1 receptor, CB1-CHO cells (Perkin Elmer) stably expressing the CB1 receptor, or CB2-CHO cells (Perkin Elmer) stably expressing the CB2 receptor.
Forskolin was initially titrated to determine the response of the cells. The EC90 of forskolin was used for compound testing. CP55940 was titrated and used with EC90 of forskolin to determine the level of agonist stimulation. EC90 of the agonist was used for subsequent compound testing. For the CB1 assay, Forskolin (Sigma), CP55940 (Cayman Chemicals), and AM251 (MCE) were diluted in 100% DMSO, starting at 100 mM, 1 mM, and 1 mM respectively, in 3-fold serial dilutions. For the CB2 assay, Forskolin (Sigma), CP55940 (Cayman Chemicals), and AM630 (MCE) were diluted in 100% DMSO, starting at 100 mM, 1 mM, and 30 mM respectively, in 3-fold serial dilutions. Test compounds were diluted in 100% DMSO starting from 10 mM, 3-fold dilutions. The cAMP assay buffer contains 1× Hank's Buffered Saline Solution with Ca^2+ and Mg^2+ (Invitrogen), 5.3 mM HEPES (Invitrogen), 0.05% BSA, 0.5 mM IBMX (Sigma). For all assays, cells were harvested, counted, and diluted in cAMP assay buffer to 1×10^5 cells/mL. Only cells with viability >85% were used for the assay. Cells were seeded at 1000 cells/well in 384-well plates and 10 nL/well AM251 (for CB1), AM630 (for CB2) or test compound was added and incubated at 37° C. for 10 min. Then forskolin and agonist were added to reach their EC90 and incubated at 25° C. for 30 min. To detect the amount of cAMP produced, 5 μL of a 100× diluted stock of Eu-cAMP tracer and 5 μL of 200× diluted stock of Ulight-anti-cAMP were added to each well, and the plate incubated at 25° C. for 15 min. The FRET signal was read using an EnVision microplate reader (λex=320 nm, λem=615 nm and 665 nm). The results are expressed as % Inhibition, where % inhibition=100−100×(U−C2)/(C1−C2), where U is the FRET ratio (λem (665 nm)/λem (615 nm)) of sample, C1 is the average of the high controls (signal with no antagonist added), and C2 is the average of low controls (signal with the highest concentration of AM251 or AM630 antagonist). The IC50 is determined by fitting the percentage of inhibition as a function of compound concentrations with the Hill equation, using a 4-parameter fit in either XLfit or GraphPad Prism.

T1 sequence (P21554 whole entry): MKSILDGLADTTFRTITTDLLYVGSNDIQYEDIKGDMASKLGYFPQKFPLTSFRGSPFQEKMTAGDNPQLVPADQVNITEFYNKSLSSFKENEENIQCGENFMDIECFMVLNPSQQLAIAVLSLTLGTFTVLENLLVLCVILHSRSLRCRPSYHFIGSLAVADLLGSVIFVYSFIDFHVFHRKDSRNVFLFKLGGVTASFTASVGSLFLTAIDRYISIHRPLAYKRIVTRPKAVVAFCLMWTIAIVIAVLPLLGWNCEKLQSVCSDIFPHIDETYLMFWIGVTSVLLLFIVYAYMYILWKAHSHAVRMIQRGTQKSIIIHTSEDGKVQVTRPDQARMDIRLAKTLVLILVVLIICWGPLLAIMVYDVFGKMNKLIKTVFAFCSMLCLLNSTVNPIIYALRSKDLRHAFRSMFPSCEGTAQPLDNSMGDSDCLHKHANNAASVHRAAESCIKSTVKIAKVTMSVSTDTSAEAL

SMILES | IC50 (CB1 receptor) [µM] | IC50 (CB2 receptor) [µM]
NC(=O)Cn1c(=O)c2c(nc(-c3ccccc3Cl)n2-c2ccc(Cl)cc2)n(CC2CCS(=O)(=O)CC2)c1=O [Compound 136, 2-[8-(2-chlorophenyl)-7-(4-chlorophenyl)-3-[(1,1-dioxo-1λ^6-thian-4-yl)methyl]-2,6-dioxopurin-1-yl]acetamide] | < 0.1 | ≥ 5
Cn1c(=O)c2c(nc(-c3ccccc3Cl)n2-c2ccc(Cl)cc2)n(Cc2ccc(S(=O)(=O)NCCO)cn2)c1=O [Compound 164, 6-[[8-(2-chlorophenyl)-7-(4-chlorophenyl)-1-methyl-2,6-dioxopurin-3-yl]methyl]-N-(2-hydroxyethyl)pyridine-3-sulfonamide] | < 0.1 | ≥ 5
Cn1c(=O)c2c(nc(-c3ccccc3Cl)n2-c2ccc(Cl)cc2)n(Cc2ccc(C(=O)NC3CCOCC3)cn2)c1=O [Compound 165] | < 0.1 | ≥ 5

The remaining lines, values ahead:

IC50 (CB1 receptor) [µM] | IC50 (CB2 receptor) [µM] | SMILES
< 0.1 | ≥ 5 | Cn1c(=O)c2c(nc(-c3ccccc3Cl)n2-c2ccc(Cl)cc2)n(Cc2ccc(S(N)(=O)=O)cn2)c1=O [Compound 159, 6-[[8-(2-chlorophenyl)-7-(4-chlorophenyl)-1-methyl-2,6-dioxopurin-3-yl]methyl]pyridine-3-sulfonamide]
< 0.1 | ≥ 5 | CS(=O)(=O)N1CCC(Cn2c(=O)n(CC(N)=O)c(=O)c3c2nc(-c2ncccc2Cl)n3-c2ccc(Cl)cc2)CC1 [Compound 170, 2-[7-(4-chlorophenyl)-8-(3-chloropyridin-2-yl)-3-[(1-methanesulfonylpiperidin-4-yl)methyl]-2,6-dioxopurin-1-yl]acetamide]
